Columns and labels:
Format in all cases: cell-based, human
KG1a AML cell line = assay: Sensitivity of KG1a AML cell line (Cell Titer Glo luminescence); conditions: for EC50: Homo sapiens, KG-1a, 48 h, 2 days treatment, luminescence, read-out: EC50 on KG1a AML cells; for mean survival of KG1a AML cells: Venetoclax at 5 μM and/or 5-Azacytidine at 10 μM, 2 days
Protocol: First, to assess the sensitivity of KG1a AML cell line to Venetoclax and 5-Azacytidine treatment in vitro, cells were treated with increasing concentrations of Venetoclax (0-5 μM), 5-Azacytidine (0-10 μM) or the combination for 2 days in cell culture medium (alpha-MEM+Glutamax supplemented with 20% Fetal Bovine Serum (FBS) and 1 mM Sodium Pyruvate). On day 2, cells were centrifuged at 1800 rpm for 5 minutes and the supernatant discarded. Cells were lysed with Cell Titer Glo reagent (Promega), and ATP amount was monitored as a measure of living cells using luminescence.

Vγ9Vδ2 T cells = assay: Proliferation of Vγ9Vδ2 T cells in HD-PBMC (CellTrace Violet); conditions: day 4, ICT01 1 μg/mL; for ICT01 and IL2-induced proliferation of Vγ9Vδ2 T cells: 50 IU/mL IL2; for increase of ICT01-induced proliferation of Vγ9Vδ2 T cells: absence of IL2
Protocol: Finally, freshly isolated human PBMC from healthy donors (HD, n=6) were labeled with CellTrace Violet stain (CTV, Invitrogen) to determine cell proliferation upon treatment with ICT01 or its isotype control (hIgG1S) used at 1 μg/mL in the presence or absence of increasing concentrations of Venetoclax (0-0.1 μM), 5-Azacytidine (0-0.4 μM) or the combination in PBMC medium (RPMI 1640 Medium supplemented with 10% FBS, 1% Penicillin/Streptomycin and 1 mM Sodium Pyruvate). Half of the cells were additionally treated with 50 IU/mL IL2. Cells were harvested on day 4, centrifuged at 1800 rpm for 5 minutes and then incubated 10 minutes at RT with 25 μl of FcR blocking reagent (Miltenyi Biotec) before adding 25 μL of the following antibody mix prepared in PBS+2% FBS+2 mM EDTA (FACS buffer): anti-CD4-BV650, CD56-FITC, Vδ2-PE, CD3-PE-CF594 and CD8-A700 antibodies for the identification of immune subsets, and a viability marker (LIVE/DEAD™ Fixable Dead Cell Stain) was added to distinguish live from dead cells. Cells were incubated 20 minutes at 4° C. and washed 2 times in FACS buffer before flow cytometry analysis.

[1] = tested on: JVM-2 (Chronic B-cell leukemia); assay: Killing of JVM-2 cells in co-culture with HD-PBMC (flow cytometry); conditions: co-culture with HD-PBMC ratio 5:1, 48 hrs
Protocol: (§1) Raji cells (Burkitt Lymphoma) or JVM2 cells (Chronic-B cell Leukemia) were co-cultured with HD-PBMC at ratio 5:1 in presence of ICT01 or isotype control (0.1 μg/mL or 1 μg/mL). After 6 hrs, indicated concentrations of Venetoclax, 5-Azacytidine or the combination were added to the culture. Relative numbers of live Raji (A) or JVM2 (B) were monitored after 48 hrs by flow cytometry. […] N=6, each dot represents one healthy donor, * p<0.05, ** p<0.01, 2 way ANOVA.
(§2) The effect of Venetoclax and 5-Azacytidine on BTN3A activating antibody-induced killing of Burkitt Lymphoma and Chronic-B-cell leukemia cell lines by Vγ9Vδ2 T cells was assessed by measuring the relative number of surviving target cells in a HD-PBMC-Target cell co-culture using flow cytometry.

MOLM14 cells = assay: Killing of MOLM14 AML cells in co-culture with HD-PBMC (flow cytometry); conditions: ICT01 0.1 μg/mL, HD-PBMC ratio 5:1, 2 days
Protocol: KG1a or MOLM14 AML cell lines were co-cultured with HD-PBMC at ratio 5:1 in presence of ICT01 or isotype control (0.1 μg/mL). After 6 hrs, indicated concentrations of ABT-737, Navitoclax or MIK665 were added to the culture. A) Relative numbers of live KG1a cells (Mean±SEM) after 2 days of co-culture with HD-PBMC in presence of ICT01 (black) or its isotype control hIgG1S (light grey) and treatment with indicated concentration of ABT-737. B) Relative numbers of live KG1a cells (Mean±SEM) after 2 days of co-culture with HD-PBMC in presence of ICT01 (black) or its isotype control hIgG1S (light grey) and treatment with indicated concentration of Navitoclax. C) Relative numbers of live MOLM14 cells (Mean±SEM) after 2 days of co-culture with HD-PBMC in presence of ICT01 (black) or its isotype control hIgG1S (light grey) and treatment with indicated concentration of MIK665. N=6 HD, each dot represents one healthy donor, * p<0.05, 2 way ANOVA.
The effect of the three Bcl-2 family member inhibitors ABT-737, Navitoclax and MIK665, on ICT01-induced killing of AML cell lines by Vγ9Vδ2 T cells was assessed by measuring the relative number of surviving target cells in a HD-PBMC-AML cells co-culture using flow cytometry.
For assays using ABT-737 or Navitoclax, KG1a cells were used. […] Therefore, MOLM14 cells, which express MCL-1, were used in killing assays assessing the activity of ICT01 combined with MIK665.

Raji (Burkitts Lymphoma) = assay: Killing of Raji cells in co-culture with HD-PBMC (flow cytometry); conditions: co-culture with HD-PBMC ratio 5:1, 48 hrs
Protocol: as §1, §2

Row | Compound | EC50 (KG1a AML cell line) [µM] | mean survival of KG1a AML cells (KG1a AML cell line) [%] | ICT01 and IL2-induced proliferation of Vγ9Vδ2 T cells (Vγ9Vδ2 T cells) | increase of ICT01-induced proliferation of Vγ9Vδ2 T cells (Vγ9Vδ2 T cells) | decrease of live JVM-2 cells as compared to hIgG1S alone condition (control) [1] | MOLM14 cell death as compared to control condition (MOLM14 cells) | decrease of live Raji cells as compared to hIgG1S alone condition (control) (Raji (Burkitts Lymphoma))
1 | CC1(C)CCC(CN2CCN(c3ccc(C(=O)NS(=O)(=O)c4ccc(NCC5CCOCC5)c([N+](=O)[O-])c4)c(Oc4cnc5[nH]ccc5c4)c3)CC2)=C(c2ccc(Cl)cc2)C1 [Venetoclax, 4-[4-[[2-(4-chlorophenyl)-4,4-dimethylcyclohexen-1-yl]methyl]piperazin-1-yl]-N-[3-nitro-4-(oxan-4-ylmethylamino)phenyl]sulfonyl-2-(1H-pyrrolo[2,3-b]pyridin-5-yloxy)benzamide] | 1.82 | 20.2 | unaffected | ~ 10% |  |  | 
2 | ICT01: humanized BTN3A activating antibody of mAb 7.2, heavy chain SEQ ID NO: 4, light chain SEQ ID NO: 6, silent IgG1 L247F/L248E/P350S |  |  |  |  | ~ 16% | ~ 56% | ~ 22%
3 | Nc1ncn([C@@H]2O[C@H](CO)[C@@H](O)[C@H]2O)c(=O)n1 [5-Azacytidine, 4-amino-1-[(2R,3R,4S,5R)3,4-dihydroxy-5-(hydroxymethyl)oxolan-2-yl]-1,3,5-triazin-2-one] | 4.72 | 47.2 | unaffected | not observed |  |  | 
